Earlier results, collected in US20090264421A1 (priority 2007, published 2009).

Tests used:
[1] = target: T1, TrxR1 (Homo sapiens, UniProt Q16881); conditions: cited from earlier work
T1 sequence (Q16881 1-499 isoform Q16881-5): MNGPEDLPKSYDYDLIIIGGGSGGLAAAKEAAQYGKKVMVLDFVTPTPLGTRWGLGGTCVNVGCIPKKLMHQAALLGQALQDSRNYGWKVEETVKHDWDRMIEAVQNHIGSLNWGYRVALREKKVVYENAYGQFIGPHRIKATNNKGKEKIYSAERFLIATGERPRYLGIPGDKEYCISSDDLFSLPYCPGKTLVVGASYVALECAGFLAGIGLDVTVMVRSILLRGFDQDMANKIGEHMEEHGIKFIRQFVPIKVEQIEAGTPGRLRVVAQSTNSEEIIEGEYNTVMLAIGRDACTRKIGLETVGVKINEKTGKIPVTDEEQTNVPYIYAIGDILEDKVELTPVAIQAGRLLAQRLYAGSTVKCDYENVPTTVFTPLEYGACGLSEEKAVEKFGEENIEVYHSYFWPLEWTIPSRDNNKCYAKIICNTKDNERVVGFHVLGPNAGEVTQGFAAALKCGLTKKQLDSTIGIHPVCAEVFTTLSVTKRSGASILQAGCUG

[2] = target: T2, glutaredoxin (Homo sapiens, UniProt P35754); conditions: cited from earlier work
T2 sequence (P35754 1-106): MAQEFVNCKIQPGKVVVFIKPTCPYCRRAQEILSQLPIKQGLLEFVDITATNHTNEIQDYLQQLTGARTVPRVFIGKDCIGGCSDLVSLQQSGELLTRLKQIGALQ

COc1c(Cl)cc2c(c1OC)N(C)[C@@H]1N3C(=O)[C@@]4(C)SS[C@@]3(C(=O)N4C)[C@H](O)[C@]21O [sporidesmin]
TrxR1 inhibition [1]: not to significantly inhibit TrxR1
glutaredoxin inhibition [2]: inhibitor of glutaredoxin
